Our source for the IC50 values is US10213451B2, “Methods and compounds for modulating the secretion or expression of adhesion proteins or angiopoietins of cells” (PACIFIC ARROW LIMITED, priority 2004, dated 2019).

Each structure is given as a SMILES string. Converted amounts (≈) assume the structure as drawn.

For the experiment, the system named is ES2(ovarian) cells. The experiment in a line: MTT assay ES2. The class given is cell-based, human. The procedure:
MTT Assay. The procedure for MTT assay followed the method described by Carmichael et al. (1987) with modifications. The cells were seeded into a 96-well plate at concentration of 10,000/well for HTB-9, HeLa, H460, HCT116, T98G and OVCAR-3), 15,000/well for DU145, MCF-7, HepG2 and U2OS), and 40,000/well for K562 for 24 hours before drug-treatment. The cells were then exposed to the drugs for 48 hours (72 hours for HepG2 and U2OS, and 96 hours for MCF-7). After the drug-treatment, MTT (0.5 mg/mL) was added to cultures and incubated for an hour. The formazan (product of the reduction of tetrazolium by viable cells) formed and was dissolved with DMSO and the O.D. at 490 nm, and was measured by an ELISA reader. The MTT level of the cells before drug-treatment was also measured (T0). The % cell-growth (% G) is calculated as: % G=(TD−T0/TC−T0)×100(1), where TC or TD represents O.D. readings of control or drug-treated cells. When T0>TD, then the cytotoxicity (LC) expressed as % of the control is calculated as: % LC=(TD−T0/T0)×100(2).
Methods: ES2 cells were exposed to (i) Xanifolia-Y with concentrations of 40, 20, 10, 5, 2.5, and 1.25 ug/ml; or (ii) Paclitaxel with concentrations of […]; or (iii) Combined Xanifolia-Y and Paclitaxel with concentrations of each drug in same order (for example, 40 ug/ml Y plus 10 ng/ml T; 20 ug/ml Y plus 5 ng/ml T, etc. please see FIG. 28). Cells growth under these conditions was determined by the MTT assay.
Drug-treatment: cells cultures were replaced with fresh RPMI medium containing Xanifolia-Y (10 ug/ml final concentration) or DMSO (as control) at 0 hour. At 2, and 18 hour, aliquot of culture medium was taken out for Fibronectin determination (Western blot method). Cell viability at 18 hours was determined by MTT assay. Cultures were replaced with RPMI medium with MTT and incubated for an hour. The formation of formazan was dissolved in DMSO and OD at 570 nm was measured.

In turn, `CC=C(C)C(=O)OC1C(OC(=O)C=Cc2ccccc2)C23C(O)CC4(C)C5(C)CCC6C(C)(C)C(OC7OC(C(=O)O)C(O)C(OC8OC(CO)C(O)C(O)C8OC8OC(C)C(O)C(O)C8OC8OC(C)C(O)C(O)C8O)C7OC7OC(CO)C(O)C(O)C7O)CCC6(C)C5CCC4(OC2O)C3CC1(C)C` (stereo not shown) [Mb1] showed an IC50 (ES2 cells) of 8 µg/mL (≈ 5.29 µM).

For the compound `CC1(C)CC2C3=CCC4C5(C)CCC(OC6OC(C(=O)O)C(O)C(OC7OCC(O)C(O)C7O)C6OC6OC(CO)C(O)C(O)C6O)C(C)(C)C5CCC4(C)C3(C)CC(O)C2(CO)C(OC(=O)c2ccccc2)C1OC(=O)c1ccccc1` [Ba5, 3-O-[β-D-galactopyranosyl(1→2)]-β-D-xylopyranosyl (1→3)-β-D-glucuronopyranosyl-21-O-benzoyl, 22-O-benzoyl-3β, 15α, 21β, 22α, 28-pentahydroxyolean-12-ene], the IC50 (ES2 cells) came to 16 µg/mL (≈ 13.7 µM).

In the case of `CC1O[C@@H](OC2[C@H](OC3[C@H](O[C@H]4C(O[C@@H]5OC(CO)[C@H](O)[C@@H](O)C5O)[C@H](O[C@H]5CC[C@@]6(C)C(CC[C@]7(C)C6CC[C@]68O[C@H](O)[C@]9(C6CC(C)(C)[C@@H](OC(=O)c6ccccc6)[C@@H]9OC(=O)C=Cc6ccccc6)[C@H](O)[C@H](O)[C@]87C)[C@@]5(C)CO)OC(C(=O)O)[C@H]4O)OC(CO)[C@H](O)[C@H]3O)OC(C)[C@H](O)[C@@H]2O)C(O)[C@@H](O)[C@H]1O` (stereo partly shown) [Mb8], the IC50 (ES2 cells) was 20 µg/mL (≈ 12.8 µM).

Compound `CC=C(C)C(=O)OC1C(OC(=O)c2ccccc2)C(C)(C)CC2C13C(O)CC1(C)C4(C)CCC5C(C)(C)C(OC6OC(C(=O)O)C(O)C(OC7OC(CO)C(O)C(O)C7OC7OC(C)C(O)C(O)C7OC7OC(C)C(O)C(O)C7O)C6OC6OC(CO)C(O)C(O)C6O)CCC5(C)C4CCC21OC3O` (stereo not shown) [Mb6] came in with an IC50 (ES2 cells) of 10 µg/mL (≈ 6.73 µM).

On to `CC1OC(OC2C(OC3C(OC4C(O)C(C(=O)O)OC(OC5CCC6(C)C(CCC7(C)C6CCC68OC(O)C9(C(O)CC76C)C(OC(=O)C=Cc6ccccc6)C(OC(=O)c6ccccc6)C(C)(C)CC98)C5(C)C)C4OC4OC(CO)C(O)C(O)C4O)OC(CO)C(O)C3O)OC(C)C(O)C2O)C(O)C(O)C1O` (stereo not shown) [Mb3], for which, for the setting “ES2 cells”, the half-maximal inhibitory concentration (IC50) was determined as 8 µg/mL (≈ 5.22 µM).

`CC=C(C)C(=O)OC1C(OC(=O)C(C)=CC)C2(CO)C(CC1(C)C)C1=CCC3C4(C)CCC(O)C(C)(CO)C4CCC3(C)C1(C)C(O)C2O` (stereo not shown) [ACH-Y2] yielded an IC50 (ES2 cells) of 35 µg/mL (≈ 51 µM).

As for `CC=C(C)C(=O)OC1C(OC(=O)C(C)=CC)C2(CO)C(O)CC3(C)C(=CCC4C5(C)CCC(O)C(C)(CO)C5CCC43C)C2CC1(C)C` (stereo not shown) [ACH-Y8], the IC50 (ES2 cells) turned out to be 35 µg/mL (≈ 52.2 µM).

Where the note is “ES2 cells”, `C/C=C(/C)C(=O)O[C@H]1[C@H](OC(=O)C(C)C)[C@@]2(CO)C(CC1(C)C)C1=CCC3[C@@]4(C)CC[C@H](O)C(C)(C)C4CC[C@@]3(C)[C@]1(C)[C@@H](O)[C@H]2O` (stereo partly shown) [ACH-Y0] showed an IC50 of 20 µg/mL (≈ 30.4 µM).

Turning to `CC1(C)CC2C3=CCC4C5(C)CCC(OC6OC(C(=O)O)C(O)C(OC7OCC(O)C(O)C7O)C6OC6OC(CO)C(O)C(O)C6O)C(C)(C)C5CCC4(C)C3(C)CC(O)C2(CO)C(O)C1OC1OCC(OC(=O)c2ccccc2)C(OC(=O)c2ccccc2)C1O` [Ba9, 3-O-[β-D-galactopyranosyl(1→2)]-β-D-xylopyranosyl (1→3)-β-D-glucuronopyranosyl-21-O-[3,4-dibenzoyl-β-D-xylopyranosyl]-3β, 15α, 21β, 22α, 28-pentahydroxyolean-12-ene], the IC50 (ES2 cells) came to 12 µg/mL (≈ 9.22 µM).

In turn, `C/C=C(/C)C(=O)O[C@H]1[C@H](O)[C@@]2(COC(=O)C(C)CC)C(CC1(C)C)C1=CCC3[C@@]4(C)CC[C@H](O)C(C)(C)C4CC[C@@]3(C)[C@]1(C)[C@@H](O)[C@H]2O` (stereo partly shown) [ACH-Y7] gave an IC50 (ES2 cells) of 65 µg/mL (≈ 96.6 µM).

For `CC1OC(OC2C(OC3C(OC4C(O)C(C(=O)O)OC(OC5CCC6(C)C(CCC7(C)C6CCC68OC(O)C9(C(O)CC76C)C(OC(=O)C=Cc6ccccc6)C(OC(=O)c6ccccc6)C(C)(C)CC98)C5(C)C)C4OC4OC(CO)C(O)C(O)C4O)OC(CO)C(O)C3O)OC(C)C(O)C2O)C(O)C(O)C1O` (stereo not shown) [Mb4], the IC50 (ES2 cells) is 15 µg/mL (≈ 9.78 µM).

Regarding `CC=C(C)C(=O)OC1C(OC(=O)c2ccccc2)C(C)(C)CC2C3=CCC4C5(C)CCC(OC6OC(C(=O)O)C(O)C(OC7OCC(O)C(O)C7O)C6OC6OC(CO)C(O)C(O)C6O)C(C)(C)C5CCC4(C)C3(C)CC(O)C21CO` [Ba3, 3-O-[β-D-galactopyranosyl(1→2)]-β-D-xylopyranosyl (1→3)-β-D-glucuronopyranosyl-21-O-benzoyl, 22-O-angeloyl-3β, 15α, 21β, 22α, 28-pentahydroxyolean-12-ene], the IC50 (ES2 cells) was determined as 8 µg/mL (≈ 6.97 µM).

Compound `CC1(C)CC2C3=CCC4C5(C)CCC(OC6OC(C(=O)O)C(O)C(OC7OCC(O)C(O)C7O)C6OC6OC(CO)C(O)C(O)C6O)C(C)(C)C5CCC4(C)C3(C)CC(O)C2(CO)C(O)C1OC(=O)c1ccccc1` [Ba8, 3-O-[β-D-galactopyranosyl(1→2)]-β-D-xylopyranosyl (1→3)-β-D-glucuronopyranosyl-21-O-benzoyl-3β, 15α, 21β, 22α, 28-pentahydroxyolean-12-ene] registered an IC50 (ES2 cells) of 20 µg/mL (≈ 18.8 µM).

`C/C=C(/C)C(=O)O[C@H]1[C@H](OC(=O)/C(C)=C\C)[C@@]2(CO)C(CC1(C)C)C1=CCC3[C@@]4(C)CC[C@H](O)C(C)(C)C4CC[C@@]3(C)[C@]1(C)C[C@H]2O` (stereo partly shown) [ACH-Y10] displayed an IC50 (ES2 cells) of 20 µg/mL (≈ 30.5 µM).

With `C/C=C(/C)C(=O)O[C@H]1[C@H](OC(=O)c2ccccc2)[C@@]2(CO)C(CC1(C)C)C1=CCC3[C@@]4(C)CC[C@H](O)C(C)(C)C4CC[C@@]3(C)[C@]1(C)[C@@H](O)[C@H]2O` (stereo partly shown) [ACH-Z4], for the setting “ES2 cells”, the IC50 was determined as 40 µg/mL (≈ 57.7 µM).

Turning to `CC(C)C(=O)OC1C(OC(=O)c2ccccc2)C(C)(C)CC2C3=CCC4C5(C)CCC(OC6OC(C(=O)O)C(O)C(OC7OCC(O)C(O)C7O)C6OC6OC(CO)C(O)C(O)C6O)C(C)(C)C5CCC4(C)C3(C)CC(O)C21CO` [Ba7, 3-O-[β-D-galactopyranosyl(1→2)]-β-D-xylopyranosyl (1→3)-β-D-glucuronopyranosyl-21-O-benzoyl, 22-O-isobutyryl-3β, 15α, 21β, 22α, 28-pentahydroxyolean-12-ene], where the note is “ES2 cells”, the IC50 worked out at 11 µg/mL (≈ 9.69 µM).

For the compound `CC=C(C)C(=O)OC1C(OC(=O)c2ccccc2)C2(CO)C(CC1(C)C)C1=CCC3C4(C)CCC(OC5OC(C(=O)O)C(O)C(OC6OC(CO)C(O)C6O)C5OC5OC(CO)C(O)C(O)C5O)C(C)(C)C4CCC3(C)C1(C)C(O)C2O` [Xanifolia Z4, 3-O-[β-D-galactopyranosyl(1→2)]-α-L-arabinofuranosyl(1→3)-β-D-glucuronopyranosyl-21-O-angeloyl, 22-O-benzoyl-3β, 15α, 16α, 21β, 22α, 28-hexahydroxyolean-12-ene], for the setting “ES2 cells”, the IC50 is 20 µg/mL (≈ 17.2 µM).

For the compound `C/C=C(/C)C(=O)O[C@H]1[C@H](OC(C)=O)C(C)(C)CC2C3=CCC4[C@@]5(C)CC[C@H](O)C(C)(C)C5CC[C@@]4(C)[C@]3(C)C[C@@H](O)[C@]21CO` (stereo partly shown) [ACH-X], under “ES2 cells”, the IC50 came out at 40 µg/mL (≈ 65.1 µM).

As to `C/C=C(/C)C(=O)O[C@H]1[C@H](OC(=O)/C(C)=C/C)[C@@]2(CO)C(CC1(C)C)C1=CCC3[C@@]4(C)CC[C@H](O[C@@H]5OC(C(=O)O)[C@@H](O)C(O[C@@H]6OC[C@@H](O)C(O)C6O)C5O[C@@H]5OC(CO)[C@H](O)C(O)C5O)C(C)(C)C4CC[C@@]3(C)[C@]1(C)C[C@H]2O` (stereo partly drawn) [Xanifolia Z12, 3-O-[β-D-galactopyranosyl(1→2)]-β-D-xylopyranosyl (1→3)-β-D-glucuronopyranosyl-21-O-angeloyl, 22-O-tigloyl-3β, 16α, 21β, 22α, 28-pentahydroxyolean-12-ene], the IC50 (Homo sapiens, ES-2) was 16 µg/mL (≈ 14.2 µM).

The IC50 is the concentration that inhibits the measured activity by half.
